Patent US20130210034A1, “COMPLEX PHOSPHOPROTEIN ACTIVATION PROFILES” (BECKMAN COULTER, INC., priority 2005, published 2013)
Several values for one entry are separate records, joined by “and”; a condition that tells them apart may be missing. Equal values may be shown once.

How the values were obtained:
Assay in all cases: Cytokine-stimulated phosphorylation in immunophenotypically defined cell populations from healthy donor BM (flow cytometry);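 as to pAKT S/N ratio: Phosphoprotein MFI normalized to lymphocyte MFI as internal negative control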;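 as to pS6 S/N ratio: Phosphoprotein MFI normalized to lymphocyte MFI as internal negative control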
Assay type in all cases: cell-based, human
[1] = test system: pAKT; settings: for pAKT Percent (%) Responding Cells, Mean / pAKT S/N ratio: healthy donor BM, mean ± SD;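 as to pAKT S/N ratio: Phosphoprotein MFI normalized to lymphocyte MFI as internal negative control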
Description: (§1) Bone marrow (BM) samples were collected in 7.5 mL Iscove's modified Dulbecco's medium (IMDM) supplemented with 100U penicillin, 0.01 mg/mL streptomycin, and 70 μg/mL heparin sodium salt from 10 patients undergoing hip replacement surgery, who were otherwise healthy. These patients were from a pool of surgery patients, age 49 to 77, and represented […] patients. […] These BM samples were rinsed twice with IMDM to release cells, filtered using a 100 μm Nylon cell strainer to remove marrow particles, and centrifuged for at RT fro 7 minutes at 200 g. The cell pellet was washed twice with sterile IMDM to remove traces of fat and re-suspended in IMDM to a concentration of 3×10^7 cells/mL.
(§2) To assess the signal transduction response after growth factor simulation, a series comprising two sets of tubes including about 3×10^6 cells/100 μL were incubated at 37° C. for 30 minutes. After this pre-incubation period, tubes with then processes with either a stimulant or inhibitor. […] To examine the effects of protein phosphorylation inhibition, tubes were incubated with an inhibitor cocktail comprising 100 μM/100 μL UO126, 1 μM/100 μL LY294002, and 1 μM/100 μL rapamycin. One unstimulated tube receiving no stimulant or inhibitor was processed to assess basal levels of phospho-protein expression. After stimulation the cells were immediately fixed in 10% formaldehyde solution at 37° C. Pre-labeling with CD13, CD16 and CD64 antibodies was carried out 20 minutes prior to formaldehyde fixation. After fixation, one set of tubes was permeabilized without methanol for pAKT, pERK and pS6 staining and the other for 80% methanol permeabilized for pSTAT3 and pSTAT5 staining. After permeablization, the cells were washed in PBS with 2% BSA and blocked by re-suspended in 75 μL of PBS comprising 25% heat inactivated normal mouse serum, 25% normal rabbit serum. To stain cells with fluorescent conjugated monoclonal antibodies, samples were incubated on ice for 45 minutes in 100 μL of an antibody staining solution including either: 1) CD15-Pacific Orange, CD34-Phycoerythrin-Texas Red, CD117-Phycoerythrin-Cyanin 5.5, CD45-Allophycocyanin-Alexa Fluor 750 (or CD45-Pacific Orange, in which case CD15-Pacific Orange was omitted), pS6-Pacific Blue, pERK-Alexa Fluor 488 and pAKT-Alexa Fluor 647 or 2) CD15-Pacific Orange, CD34-Phycoerythrin-Texas Red, CD117-Phycoerythrin-Cyanin 5.5, CD45-Allophycocyanin-Alexa Fluor 750 or CD45-Pacific Blue, pSTAT3-Alexa Fluor 488 and pSTAT5-Phycoerythrin. The stained cells were washed twice with ice cold PBS containing 2% BSA and centrifuged at 800 g for 6 minutes at 4° C. The supernatant was discarded and cells re-suspended in 250 μL of chilled wash buffer for data acquisition. Stained cells were examined using either GALIOS flow cytometer (Beckman Coulter) or CYAN ADP (Beckman Coulter) equipped with 488 nm, 405 nm and 635 nm lasers to detect the degree of fluorescence. Data were analyzed using FCS Express (De Novo Software, CA) analysis software.
(§3) Specific phosphoprotein expression of pERK, pS6, pAKT, pSTAT5, and pSTAT3 was examined in seven discrete phenotypically defined populations based on 7-color immunophenotyping (FIG. 1). The percent of responding (phosphorprotein positive) cells for each of these populations was determined from individual single parameter histograms based on a fixed integration region set on the inhibitor treated control at about 3% positives.

[2] = test system: pS6; settings: healthy donor BM, mean ± SD;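 as to pS6 S/N ratio: Phosphoprotein MFI normalized to lymphocyte MFI as internal negative control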
Description: as §1, §2, §3

[3] = test system: pERK; settings: healthy donor BM, mean ± SD
Description: as §1, §2, §3

[4] = test system: pSTAT5; settings: for pSTAT5 Percent (%) Responding Cells, Mean / pSTAT5 S/N ratio: healthy donor BM, mean ± SD
Description: as §1, §2, §3

[5] = test system: pSTAT3; settings: healthy donor BM, mean ± SD
Description: as §1, §2, §3

## Granulocyte-Macrophage Colony-Stimulating Factor [GM-CSF]
[1]; CD34^+ (CD34^+/CD117^+ cells)
  pAKT Percent (%) Responding Cells, Mean: 22.5 ± 23.4%
  pAKT S/N ratio: 3.2 ± 3.3
[1]; CD117^+ (CD34^−/CD117^+ cells)
  pAKT Percent (%) Responding Cells, Mean: 13.3 ± 23.7%
  pAKT S/N ratio: 2.2 ± 1.3
[1]; G1, immature myeloid cells
  pAKT Percent (%) Responding Cells, Mean: 11.2 ± 19.8%
  pAKT S/N ratio: 3.0 ± 1.6
[1]; G2, intermediate myeloid cells
  pAKT Percent (%) Responding Cells, Mean: 17.6 ± 26.1%
  pAKT S/N ratio: 3.2 ± 1.6
[1]; G3, mature myeloid cells
  pAKT Percent (%) Responding Cells, Mean: 17.5 ± 26.0%
  pAKT S/N ratio: 3.7 ± 1.9
[1]; Mono, monocytes
  pAKT Percent (%) Responding Cells, Mean: 17.6 ± 27.3%
  pAKT S/N ratio: 3.6 ± 2.3
[1]; Table 7 comparison value
  pAKT, Normal Sample: 16.2
[2]; CD34^+ (CD34^+/CD117^+ cells)
  pS6 Percent (%) Responding Cells, Mean: 60.1% and 60.1 ± 14.1%
  pS6 S/N ratio: 35.7 ± 31.7
[2]; CD117^+ (CD34^−/CD117^+ cells)
  pS6 Percent (%) Responding Cells, Mean: 38.5 ± 11.5%
  pS6 S/N ratio: 52.7 ± 44.0
[2]; G1, immature myeloid cells
  pS6 Percent (%) Responding Cells, Mean: 3.4 ± 1.3%
  pS6 S/N ratio: 5.1 ± 3.2
[2]; G2, intermediate myeloid cells
  pS6 Percent (%) Responding Cells, Mean: 11.3 ± 15.9%
  pS6 S/N ratio: 5.7 ± 3.7
[2]; G3, mature myeloid cells
  pS6 Percent (%) Responding Cells, Mean: 8.3 ± 7.0%
  pS6 S/N ratio: 5.7 ± 3.6
[2]; Mono, monocytes
  pS6 Percent (%) Responding Cells, Mean: 76.9 ± 11.8%
  pS6 S/N ratio: 25.8 ± 20.8
[3]; CD34^+ (CD34^+/CD117^+ cells)
  pERK Percent (%) Responding Cells, Mean: 30.1% and 30.1 ± 11.5%
  pERK S/N ratio: 10.6 ± 4.4
[3]; CD117^+ (CD34^−/CD117^+ cells)
  pERK S/N ratio: 3.8 ± 0.4
[3]; G1, immature myeloid cells
  pERK Percent (%) Responding Cells, Mean: 53.9% and 53.9 ± 20.8%
  pERK S/N ratio: 6.2 ± 1.8
[3]; G2, intermediate myeloid cells
  pERK Percent (%) Responding Cells, Mean: 91.5 ± 16.0%
  pERK S/N ratio: 9.4 ± 2.4
[3]; G3, mature myeloid cells
  pERK Percent (%) Responding Cells, Mean: 91.5% and 90.7 ± 15.0%
  pERK S/N ratio: 11.3 ± 3.1
[3]; Mono, monocytes
  pERK Percent (%) Responding Cells, Mean: 52.0 ± 22.6%
  pERK S/N ratio: 11.4 ± 4.5
[4]; CD34^+ (CD34^+/CD117^+ cells)
  pSTAT5 Percent (%) Responding Cells, Mean: 74.7%
  pSTAT5 S/N ratio: 19.8 ± 9.7
[4]; CD117^+ (CD34^−/CD117^+ cells)
  pSTAT5 Percent (%) Responding Cells, Mean: 58.2 ± 11.8%
[4]; G2, intermediate myeloid cells
  pSTAT5 Percent (%) Responding Cells, Mean: 98.8 ± 0.4%
  pSTAT5 S/N ratio: 18.3 ± 5.5
[4]; Mono, monocytes
  pSTAT5 S/N ratio: 14.7 ± 4.5
[4]; Table 7 comparison value, matches percent responding CD34^+ cells of Tables 1-5
  pSTAT5, Normal Sample: 74.7 and 75.1
[5]; CD34^+ (CD34^+/CD117^+ cells)
  pSTAT3 Percent (%) Responding Cells, Mean: 10.4 ± 7.9%
  pSTAT3 S/N ratio: 1.7 ± 0.2
[5]; CD117^+ (CD34^−/CD117^+ cells)
  pSTAT3 Percent (%) Responding Cells, Mean: 7.9 ± 8.7%
  pSTAT3 S/N ratio: 2.6 ± 0.8
[5]; G1, immature myeloid cells
  pSTAT3 Percent (%) Responding Cells, Mean: 58.7% and 58.7 ± 39.9%
  pSTAT3 S/N ratio: 6.8 ± 2.5
[5]; G2, intermediate myeloid cells
  pSTAT3 Percent (%) Responding Cells, Mean: 59.1 ± 30.4%
  pSTAT3 S/N ratio: 7.3 ± 2.1
[5]; G3, mature myeloid cells
  pSTAT3 Percent (%) Responding Cells, Mean: 76.0 ± 30.8%
  pSTAT3 S/N ratio: 8.8 ± 2.7
[5]; Mono, monocytes
  pSTAT3 S/N ratio: 2.3 ± 0.3
